≈ marks a conversion by molar mass, not a printed value.
Columns and labels:
[1] = system: E. coli NDM-7 (T2239); assay: MIC assay, clinical isolate; assay type: cell-based; settings: E. coli NDM-7 (T2239)
[2] = system: E. coli IMP-1 (T2360); assay: Checkerboard assay with imipenem, E. coli IMP-1 (T2360); assay type: cell-based
Procedure: (§1) Fractional inhibitory concentration index (FICI). The checkerboard assay was performed to test for synergy in vitro. […] FICIs≤0.5 were defined as synergistic; FICIs from >0.5 to […] were defined as additive; FICIs from 1 to ≤4 were defined as indifferent and FICIs>4 were defined as antagonistic (Doern, C. D. When Does 2 plus 2 Equal 5? A Review of Antimicrobial Synergy Testing. J. Clin. Microbial. 2014, 52 (12), 4124-4128. https://doi.org/10.1128/JCM.01121-14).

[3] = system: E. coli KPC-2 (T2435); assay: MIC assay, clinical isolate; assay type: cell-based; settings: intrinsic antimicrobial activity
[4] = system: K. pneumoniae NDM-1 (T2301); assay: MIC assay, clinical isolate; assay type: cell-based
[5] = system: E. cloacae NDM-1 (T2311); assay: MIC assay, clinical isolate; assay type: cell-based
[6] = system: P. aeruginosa IMP-1 (T2325); assay: MIC assay, clinical isolate; assay type: cell-based; settings: intrinsic antimicrobial activity; P. aeruginosa IMP-1 (T2325)
[7] = system: E. cloacae VIM-1 (T2353); assay: MIC assay, clinical isolate; assay type: cell-based
[8] = target: T1, VIM-1 (Pseudomonas aeruginosa, UniProt A0A0F7KYQ8); assay: In vitro inhibition assay (kinetic fluorescence-based activity assay), VIM-1; assay type: biochemical; settings: Means and SD of at least two independent experiments
T1 construct: made in house
Procedure: (§2) Protein expression and purification. The expression of IMP-7, VIM-1, and NDM-1 was performed according to the protocol previously published by Klingler et al. (Klingler, F. M.; Wichelhaus, T. A.; Frank, D.; Cuesta-Bernal, J.; El-Delik, J.; Müller, H. F.; Sjuts, H.; Gottig, S.; Koenigs, A.; Pos, K. M.; et al. Approved Drugs Containing Thiols as Inhibitors of Metallo-β-Lactamases: Strategy to Combat Multidrug-Resistant Bacteria. J. Med. Chem. 2015, 58 (8), 3626-3630. https://doi.org/10.1021/jm501844d) with slight modifications.
(§3) In vitro inhibition assay. Activity assays for NDM-1, VIM-1, VIM-2 and IMP-7 were carried out, as described by Klingler et al. Final protein concentrations were 0.5 nM (NDM-1), 4.0 nM (VIM-1), and 0.1 nM (IMP-7) in a 50 mM HEPES buffer (pH 7.5, 0.01% Triton X-100) Substrate (Fluorocillin™ (Invitrogen, Darmstadt, Germany) was dissolved in assay buffer to a final concentration of 888 nM. Test compounds were dissolved and pre-diluted in DMSO (final concentration: 1%). In a black polystyrol 96-well plate (Corning) an amount of […] of the respective inhibitor solution at different concentrations was incubated with […] of respective protein containing buffer for 30 minutes at room temperature. […] of substrate solution was added. The readout of the emitted fluorescence was started immediately (45 s for 30 cycles) using a Tecan Infinite F200Pro (Tecan Group Ltd; excitation at 495 nm and emission at 525 nm). Blank controls were performed without enzyme. Positive controls were performed with enzyme but without inhibitor. The inhibitory activity of each test compound was measured in three independent experiments. For calculation of IC50 values, data obtained from measurements with eight different inhibitor concentrations were used. For the evaluation of the sigmoidal dose response equation (variable slope with four parameters) GraphPad Prism 5 (GraphPad Software, La Jolla, Calif., USA) was used.

[9] = system: different isolates from E. coli and P. aeruginosa; assay: MIC assay, intrinsic antibacterial activity; assay type: cell-based; settings: compound alone
[10] = system: E. cloacae GIM-1 (T2218); assay: MIC assay, clinical isolate; assay type: cell-based; settings: intrinsic antimicrobial activity; E. cloacae GIM-1 (T2218)
[11] = system: S. marcescens NDM-1 (T2352); assay: MIC assay, clinical isolate; assay type: cell-based; settings: S. marcescens NDM-1 (T2352)
[12] = target: T2, NDM-1 (Klebsiella pneumoniae, UniProt C7C422); assay: In vitro inhibition assay (kinetic fluorescence-based activity assay), NDM-1; assay type: biochemical; settings: Means and SD of at least two independent experiments
T2 construct: made in house
T2 sequence (C7C422 29-270, looked up, species assumed): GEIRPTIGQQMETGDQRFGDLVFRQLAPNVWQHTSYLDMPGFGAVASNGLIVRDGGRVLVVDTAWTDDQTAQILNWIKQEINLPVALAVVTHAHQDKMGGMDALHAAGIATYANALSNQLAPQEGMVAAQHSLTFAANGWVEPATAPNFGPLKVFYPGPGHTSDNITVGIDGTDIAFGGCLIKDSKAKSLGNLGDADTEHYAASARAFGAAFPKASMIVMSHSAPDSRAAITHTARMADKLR
Procedure: as §2, §3

[13] = system: E. coli VIM-1 (T2544); assay: Checkerboard assay with imipenem, E. coli VIM-1 (T2544); assay type: cell-based
Procedure: as §1

[14] = target: IMP-7 (Pseudomonas aeruginosa, UniProt Q93AU3); assay: In vitro inhibition assay (kinetic fluorescence-based activity assay), IMP-7; assay type: biochemical; settings: Means and SD of at least two independent experiments
Chain of IMP-7 (Q93AU3 entry or part of it): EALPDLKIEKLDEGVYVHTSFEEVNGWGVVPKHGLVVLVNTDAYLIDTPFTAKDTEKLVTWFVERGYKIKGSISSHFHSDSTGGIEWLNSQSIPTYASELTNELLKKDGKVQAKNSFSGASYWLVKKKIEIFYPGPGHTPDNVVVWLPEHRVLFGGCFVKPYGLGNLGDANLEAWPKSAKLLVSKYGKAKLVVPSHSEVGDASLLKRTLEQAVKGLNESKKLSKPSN
Procedure: as §2, §3

[15] = system: A. baumannii OXA-23 (T2434); assay: MIC assay, clinical isolate; assay type: cell-based; settings: intrinsic antimicrobial activity
[16] = system: E. coli NDM-5 (T2351); assay: MIC assay, clinical isolate; assay type: cell-based
[17] = system: E. coli NDM-1 (T2359); assay: Checkerboard assay with imipenem, E. coli NDM-1 (T2359); assay type: cell-based; settings: Table 6
Procedure: as §1

[18] = system: P. aeruginosa VIM-1 (T2357); assay: MIC assay, clinical isolate; assay type: cell-based; settings: intrinsic antimicrobial activity
[19] = intrinsic antimicrobial activity

O=C(CCS)Nc1cccc(C(=O)O)c1 [HIPS5694, 3-(3-mercaptopropanamido)benzoic acid]
MIC (mg/L) Imipenem (+HIPS 5694 128 mg/L) ([1]; +HIPS 5694 128 mg/L): 2 mg/L (≈ 8.88 µM)
HIPS 5694 MIG [1, 19]: >256 mg/L
Imipenem MIC ([2]; +2 mg/L compound): 2 µg/mL
Imipenem MIC ([2]; +4 mg/L compound): 2 µg/mL
Imipenem MIC ([2]; +8 mg/L compound): 1 µg/mL
Imipenem MIC ([2]; +16 mg/L compound): 1 µg/mL
Imipenem MIC ([2]; +32 mg/L compound): 1 µg/mL
Imipenem MIC ([2]; +64 mg/L compound): 0.5 µg/mL
Imipenem MIC ([2]; +128 mg/L compound): 0.5 µg/mL
HIPS 5694 MIG [3]: >256 mg/L
MIC (mg/L) Imipenem (+HIPS 5694 128 mg/L) ([4]; +HIPS 5694 128 mg/L): 0.5 mg/L (≈ 2.22 µM)
HIPS 5694 MIG [4, 19]: >256 mg/L
MIC (mg/L) Imipenem (+HIPS 5694 128 mg/L) ([5]; +HIPS 5694 128 mg/L): 1 mg/L (≈ 4.44 µM)
HIPS 5694 MIG [5, 19]: >256 mg/L
HIPS 5694 MIG [6]: >256 mg/L
MIC (mg/L) Imipenem (+HIPS 5694 128 mg/L) ([7]; +HIPS 5694 128 mg/L): 2 mg/L (≈ 8.88 µM)
HIPS 5694 MIG [7, 19]: >256 mg/L
IC50 [8]: 1.2 µM
intrinsic antibacterial activity (MIC) [9]: no intrinsic antibacterial activity
HIPS 5694 MIG [10]: >256 mg/L
MIC (mg/L) Imipenem (+HIPS 5694 128 mg/L) ([11]; +HIPS 5694 128 mg/L): 4 mg/L (≈ 17.8 µM)
HIPS 5694 MIG [11, 19]: >256 mg/L
IC50 [12]: 4 µM
Imipenem MIC ([13]; +2 mg/L compound): 32 µg/mL
Imipenem MIC ([13]; +4 mg/L compound): 32 µg/mL
Imipenem MIC ([13]; +8 mg/L compound): 32 µg/mL
Imipenem MIC ([13]; +16 mg/L compound): 16 µg/mL
Imipenem MIC ([13]; +32 mg/L compound): 16 µg/mL
Imipenem MIC ([13]; +64 mg/L compound): 8 µg/mL
Imipenem MIC ([13]; +128 mg/L compound): 0.5 µg/mL
IC50 [14]: 6.4 ± 0.6 µM
HIPS 5694 MIG [15]: >256 mg/L
MIC (mg/L) Imipenem (+HIPS 5694 128 mg/L) ([16]; +HIPS 5694 128 mg/L): 2 mg/L (≈ 8.88 µM)
HIPS 5694 MIG [16, 19]: >256 mg/L
Imipenem MIC ([17]; +2 mg/L compound): 128 µg/mL
Imipenem MIC ([17]; +4 mg/L compound): 128 µg/mL
Imipenem MIC ([17]; +8 mg/L compound): 64 µg/mL
Imipenem MIC ([17]; +16 mg/L compound): 64 µg/mL
Imipenem MIC ([17]; +32 mg/L compound): 8 µg/mL
Imipenem MIC ([17]; +64 mg/L compound): 2 µg/mL
Imipenem MIC ([17]; +128 mg/L compound): ≤0.5 µg/mL
HIPS 5694 MIG [18]: >256 mg/L

From US20230146507A1, “N-PHENYL-3-MERCAPTOPROPANAMIDE DERIVATIVES AS METALLO-BETA-LACTAMASE INHIBITORS FOR THE TREATMENT OF BACTERIAL INFECTIONS” (Helmholtz-Zentrum Für Infektionsforschung GmbH, priority 2020, published 2023)
